# Key:
# tyrosinase [1] = assay: ANS-binding fluorescence measurement; details: 4c from 0 μM to 50 μM
# Method: An equal volume of ANS solution (80 μM) was added to the tyrosinase solution (400 U/mL). After thorough mixing, the mixture was left to stand at room temperature for 30 min. Subsequently, a specific amount of the ANS-labeled tyrosinase solution was extracted, vigorously shaken, and 4c was incrementally added dropwise to this mixture. The fluorescence spectrum of the mixture was scanned under conditions of an excitation wavelength of 390 nm, an emission slit width of 5 nm, and an emission wavelength range of 400–600 nm ([Lü et al., 2010]).
# zebrafish embryos = assay: Acute toxicity in zebrafish embryos (OECD FET No. 236); type: in vivo; details: 4c 25, 50, 100 μM; KA 100 μM; observed at 48 hpf
# Method: The acute toxicity assay was conducted in accordance with the Guidelines of Organization for Economic Co-operation and Development (OECD) for the Testing of Chemicals, Fish Embryo Acute Toxicity (FET) Test, No. 236 ([OECD, 2013]). All zebrafish procedures in this study were approved by Anhui Medical University Experimental Animal Ethics Committee (Protocol No.: LLSC20241625). The zebrafish were maintained in accordance with the established protocols of the Zebrafish International Resource Center. Surviving zebrafish were humanely euthanized at the end of the study to prevent prolonged suffering. The euthanasia method involved immersion in a buffered solution of tricaine methanesulfonate at a concentration of 300 mg/L for at least 10 min, followed by confirmation of death through the cessation of gill movement and heartbeat. Carcasses were promptly frozen at −20 °C and disposed of through authorized biological waste channels.
# Referring to published methods with certain modifications ([Qian et al., 2018]), 13–15 h post-fertilization (hpf) zebrafish embryos were placed in small dishes containing 5 mL of culture medium in this experiment. Different concentrations of 4c (25, 50, 100 μM) and KA (100 μM) were added to the dishes, respectively, and the experiments were repeated three times. […]
# tyrosinase [2] = assay: UV spectra measurement; type: binding; details: addition of 4c
# Method: Following the reported methods ([Chen et al., 2022]), a 3 mL assay system was established by adding a solution of 4c (300 μM, 350 μL) and tyrosinase solution (200 U/mL, 400 μL) to 2250 μL of PBS at pH 6.8. Spectral measurements were carried out using a UV-1800 spectrophotometer with wavelength scanning from 200 to 400 nm. Three experimental controls were implemented: (1) PBS buffer as blank reference, (2) 4c solution in PBS without enzyme, and (3) enzyme solution in PBS without 4c. To ensure measurement reliability, all spectra were acquired in triplicate through independent scanning processes. Background corrections were systematically applied using corresponding control solutions for each experimental condition.
# [3] = Stability evaluation (HPLC content); type: physicochemical
# Method: The purpose of stability testing is to provide evidence on how the quality of an active substance varies with time under the influence of a variety of environmental factors such as temperature, humidity, and light. Compound 4c with the strongest activity was evaluated for its stability. 4c was first dissolved in acetonitrile to prepare a 100 mM stock solution. This stock solution was then diluted to a 10 mM working concentration using different pH buffer solutions (4.0, 7.0 and 9.0). The samples were aliquoted into sealed vials. These vials were placed at different temperatures (25 °C, 40 °C and 60 °C) under both light-exposed and light-protected conditions for stability testing. The content change of the compound was monitored at scheduled time intervals (0 h, 24 h and 72 h) using an HPLC method.
# tyrosinase [4] = assay: Fluorescence quenching of tyrosinase; type: binding
# Method: Fluorescence intensity quantification was performed on a spectrofluorometer (Cary Eclipse) following a literature-established protocol ([Peng et al., 2021]), a tyrosinase solution (200 U/mL) was prepared in phosphate buffer (pH = 6.8). Incremental volumes of 4c solution at identical concentrations were added to the enzyme solution. With an excitation wavelength of 280 nm, an emission slit width of 5 nm, and the mixture was recorded in the 290–450 nm emission wavelength range.
# Escherichia coli = assay: Antibacterial activity, plate counting; type: cell-based; details: for antibacterial rate against E. coli: KA and THIQ groups, Fig. 7A
# Method: (§1) The antibacterial activity of 4c against Escherichia coli (E. coli) and Staphylococcus aureus (S. aureus) was evaluated using a modified plate counting method based on literature reports ([Ruan et al., 2024]). In this process, the strains were first activated on LB agar medium at 37 °C for 18 h. Subsequently, bacterial suspensions (1 × 10^8 CFU/mL) were prepared in fresh nutrient broth medium according to the 0.5 McFarland turbidity standard. These suspensions were then diluted to 1 × 10^5 CFU/mL for antibacterial testing. Various concentrations of 4c solutions were prepared and mixed with the 1 × 10^5 CFU/mL bacterial suspensions, with equal volumes of physiological saline added to the control group. The mixtures were incubated at 37 °C for 12 h, serially diluted, plated (100 μL) onto plate count agar medium, and incubated for 24 h at 37 °C for colony counting. Each experiment was conducted in triplicate, and the antibacterial rate was calculated using the following formula (2):(2) BacterialInhibitionrate(%)=(1−XS/X0)×100% where X0 represented the bacterial colony count of the control group post 24-h incubation, while XS denoted the average bacterial colony count of the sample group.
# Staphylococcus aureus = assay: Antibacterial activity, plate counting; type: cell-based; details: for antibacterial rate against S. aureus: KA and THIQ groups, Fig. 7A
# Method: as §1
# Botrytis cinerea = assay: Antifungal activity, radial growth on PDA; type: cell-based; details: 4c at high concentrations (5, 15, 30 μg/mL tested), 72 h
# Method: Fungal contamination is a major cause of food spoilage. To evaluate the antifungal potential of 4c, its efficacy against the common phytopathogen Botrytis cinerea (B. cinerea) was investigated ([Zhou et al., 2025]). The assay was performed as follows: B. cinerea was first cultivated on Potato Dextrose Agar (PDA) to ensure robust growth. Subsequently, 4c was prepared at various concentrations and incorporated into PDA to form a drug-containing medium. Fungal mycelia were then inoculated onto the center of both the treatment and control plates, with the latter containing an equal volume of physiological saline instead of the compound. All plates were incubated at 27 °C for 72 h. Following incubation, the colonial growth on each Petri dish was photographed, with particular attention to the mycelial morphology and expansion. The antifungal activity was quantified by measuring the radial growth of the fungus, and the inhibition rate was calculated according to formula (3):(3) FungalInhibitionrate(%)=(1−DS/D0)×100% where D0 is the growth size of the control group, DS is the growth size of the group containing the sample group.
# fresh-cut mushrooms = assay: Anti-browning study on fresh-cut mushrooms; parameters: species or system button mushrooms; details: 100 μM sprayed, 4 °C, 7-day storage; versus KA and control
# Method: Fresh and clean mushrooms of appropriate size were purchased from the local supermarket and their surfaces were evenly trimmed. […] CIE Lab values (L∗, a∗, and b∗) were measured using a colorimeter (NR60CP) to monitor the color changes of the fresh-cut mushrooms ([Wang et al., 2023]). The browning progression on mushroom surfaces was monitored via daily photographic documentation. The anti-browning efficacy was quantified using the total color difference (ΔE), calculated according to formula (4):(4) ΔE=[(Lt∗−Linitial∗)^2+(at∗−ainitial∗)^2+(bt∗−binitial∗)^2]^0.5
# tyrosinase [5] = molecular target: tyrosinase (Agaricus bisporus, UniProt C7FF04); assay: Kinetic analysis (Lineweaver-Burk plots, L-DOPA); type: biochemical, mushroom
# tyrosinase (Agaricus bisporus, UniProt C7FF04), sequence (C7FF04 1-392): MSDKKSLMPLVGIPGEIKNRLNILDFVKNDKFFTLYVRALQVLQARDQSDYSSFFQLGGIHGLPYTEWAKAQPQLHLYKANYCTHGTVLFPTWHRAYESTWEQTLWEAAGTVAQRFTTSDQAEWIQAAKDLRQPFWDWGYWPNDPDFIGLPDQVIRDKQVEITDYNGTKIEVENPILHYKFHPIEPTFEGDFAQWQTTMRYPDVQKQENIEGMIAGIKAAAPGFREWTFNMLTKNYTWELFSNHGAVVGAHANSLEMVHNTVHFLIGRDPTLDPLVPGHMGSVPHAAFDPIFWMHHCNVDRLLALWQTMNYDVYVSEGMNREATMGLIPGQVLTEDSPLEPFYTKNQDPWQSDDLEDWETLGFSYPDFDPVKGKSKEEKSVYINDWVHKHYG
# Method: Reaction rates were determined using different concentrations of compounds (1.25, 2.5, and 5 μM) and L-DOPA solutions (0.5, 1, 1.5, and 2 mM).
# tyrosinase [6] = details: ref Zhang et al., 2025; cited from earlier work
# [7] = plot of log[(F0−F)/F] against log[I]
# [8] = 4c at high concentrations (5, 15, 30 μg/mL tested)
smiles,measurement,setting,value
COc1ccc2c(c1)CCN(Cc1cc(=O)c(O)co1)C2 [Compound 4c],maximum fluorescence intensity of ANS-TYR,tyrosinase [1],gradually increased
same,acute toxicity in zebrafish embryos,zebrafish embryos,no significant toxic effects
same,characteristic absorption peak of tyrosinase at 280 nm,tyrosinase [2],significant decrease
same,content (stability testing),"[3]; 25℃, pH 4, 0 h",97.01%
same,content (stability testing),"[3]; 25℃, pH 4, 24 h",98.10%
same,content (stability testing),"[3]; 25℃, pH 4, 72 h",98.32%
same,content (stability testing),"[3]; 25℃, pH 7, 0 h",98.63%
same,content (stability testing),"[3]; 25℃, pH 7, 24 h",97.48%
same,content (stability testing),"[3]; 25℃, pH 7, 72 h",98.03%
same,content (stability testing),"[3]; 25℃, pH 9, 0 h",97.43%
same,content (stability testing),"[3]; 25℃, pH 9, 24 h",97.48%
same,content (stability testing),"[3]; 25℃, pH 9, 72 h",97.59%
same,content (stability testing),"[3]; 40℃, pH 4, 0 h",97.02%
same,content (stability testing),"[3]; 40℃, pH 4, 24 h",97.50%
same,content (stability testing),"[3]; 40℃, pH 4, 72 h",97.41%
same,content (stability testing),"[3]; 40℃, pH 7, 0 h",97.56%
same,content (stability testing),"[3]; 40℃, pH 7, 24 h",96.04%
same,content (stability testing),"[3]; 40℃, pH 7, 72 h",97.75%
same,content (stability testing),"[3]; 40℃, pH 9, 0 h",96.51%
same,content (stability testing),"[3]; 40℃, pH 9, 24 h",95.00%
same,content (stability testing),"[3]; 40℃, pH 9, 72 h",96.12%
same,content (stability testing),"[3]; 60℃, pH 7, 0 h",96.64%
same,content (stability testing),"[3]; 60℃, pH 7, 24 h",96.84%
same,content (stability testing),"[3]; 60℃, pH 7, 72 h",96.62%
same,content (stability testing),"[3]; 60℃, pH 9, 0 h",96.61%
same,content (stability testing),"[3]; 60℃, pH 9, 24 h",96.04%
same,content (stability testing),"[3]; 60℃, pH 9, 72 h",96.26%
same,content (stability testing),"[3]; Light, pH 7, 0 h",96.64%
same,content (stability testing),"[3]; Light, pH 7, 24 h",96.84%
same,content (stability testing),"[3]; Light, pH 7, 72 h",96.62%
same,content (stability testing),"[3]; Light, pH 9, 0 h",96.61%
same,content (stability testing),"[3]; Light, pH 9, 24 h",96.04%
same,content (stability testing),"[3]; Light, pH 9, 72 h",96.26%
same,retention rate,"[3]; after 72 h, all pH (4.0, 7.0, 9.0) and temperatures (25, 40, 60 °C)",> 95%
same,relative fluorescence intensity,tyrosinase [4]; 25 μM 4c,52%
same,fluorescence intensity of tyrosinase,"tyrosinase [4]; 25 μM 4c, 146.61 without inhibitor, emission peak 354 nm",76.92
same,fluorescence quenching mechanism,tyrosinase [4]; Kq versus maximum dynamic quenching constant,static quenching
same,Stern-Volmer quenching constant Ksv,tyrosinase [4]; Stern-Volmer plot,43000 L/mol
same,bimolecular quenching constant Kq,tyrosinase [4]; Stern-Volmer plot,4.3 × 10^12 L mol^−1 S^−1
same,apparent binding constant Ka,tyrosinase [4]; [7],15100 L/mol
same,number of binding sites n,tyrosinase [4]; [7],1.11
same,inhibition rate against E. coli,Escherichia coli; [8],~100%
same,inhibition rate against S. aureus,Staphylococcus aureus; [8],~100%
same,inhibition rate against B. cinerea,Botrytis cinerea,~90%
same,L∗ (lightness) of fresh-cut mushrooms,fresh-cut mushrooms,highest L∗ value
same,total color difference ΔE of fresh-cut mushrooms,fresh-cut mushrooms,lowest ΔE value
same,Ki,"tyrosinase [5]; L-DOPA substrate, slope replot, read-out: inhibition constant Ki for free enzyme",1.48 µM
same,inhibition type,tyrosinase [5]; Lineweaver-Burk plots,mixed-type inhibitor
"c1ccc2c(c1)CCNC2 [THIQ, tetrahydroisoquinoline]",antibacterial rate against E. coli,Escherichia coli,low antibacterial rates
same,antibacterial rate against S. aureus,Staphylococcus aureus,low antibacterial rates
"Oc1ccccc1-c1nnc(S)o1 [Compound 2f, 5-(2-hydroxyphenyl)-1,3,4-oxadiazole-2-thiol]",IC50,tyrosinase [6],17.7 ± 0.21 µM
O=c1cc(CO)occ1O [Kojic acid],acute toxicity in zebrafish embryos,zebrafish embryos,partial mortality
same,antibacterial rate against E. coli,Escherichia coli,low antibacterial rates
same,antibacterial rate against S. aureus,Staphylococcus aureus,low antibacterial rates

# Reference: article PMC12681733, “Multifunctional kojic acid-tetrahydroisoquinoline hybrids: Synthesis, tyrosinase inhibition, and applications in the anti-browning of fresh-cut mushrooms” (Current Research in Food Science, 2025)
